According to ChEMBL document CHEMBL3390836, “Mannich- and LedererManasse-based analogues of the natural product S-(+)-curcuphenol as cancer proliferation and migration inhibitors” (Medchemcomm, 2012):

Experiments:
T47D = assay: Cytotoxicity against human T47D cells assessed as cell growth at 10 uM after 48 hrs by SRB assay relative to control; type: functional; settings: read-out: Activity
HOP-62 = assay: Cytotoxicity against human HOP62 cells assessed as cell growth at 10 uM after 48 hrs by SRB assay relative to control; type: functional; settings: HOP-62, 48 h, read-out: Activity
[1] = Cytotoxicity against human UACC62 cells assessed as cell growth at 10 uM after 48 hrs by SRB assay relative to control; type: functional; settings: UACC-62, 48 h, read-out: Activity
[2] = Cytotoxicity against human OVCAR4 cells assessed as cell growth at 10 uM after 48 hrs by SRB assay relative to control; type: functional; settings: OVCAR-4, 48 h, read-out: Activity
MDA-MB-435 = assay: Cytotoxicity against human MDA-MB-435 cells assessed as cell growth at 10 uM after 48 hrs by SRB assay relative to control; type: functional; settings: MDA-MB-435, 48 h, read-out: Activity
MDA-MB-231 [3] = assay: Growth inhibition of human MDA-MB-231 cells after 72 hrs by MTT assay; type: functional, cell-based; settings: MDA-MB-231, 72 h
LOX IMVI = assay: Cytotoxicity against human LOXIMVI cells assessed as cell growth at 10 uM after 48 hrs by SRB assay relative to control; type: functional; settings: read-out: Activity
MDA-MB-231 [4] = assay: Cytotoxicity against human MDA-MB-231 cells assessed as cell growth at 10 uM after 48 hrs by SRB assay relative to control; type: functional; settings: MDA-MB-231, 48 h, read-out: Activity
NCI-H226 = assay: Cytotoxicity against human NCI-H226 cells assessed as cell growth at 10 uM after 48 hrs by SRB assay relative to control; type: functional; settings: NCI-H226, 48 h, read-out: Activity
U-251 = assay: Cytotoxicity against human U251 cells assessed as cell growth at 10 uM after 48 hrs by SRB assay relative to control; type: functional; settings: U-251, 48 h, read-out: Activity
SW-620 = assay: Cytotoxicity against human SW620 cells assessed as cell growth at 10 uM after 48 hrs by SRB assay relative to control; type: functional; settings: SW-620, 48 h, read-out: Activity
SN12C = assay: Cytotoxicity against human SN12C cells assessed as cell growth at 10 uM after 48 hrs by SRB assay relative to control; type: functional; settings: read-out: Activity
CAKI-1 = assay: Cytotoxicity against human Caki1 cells assessed as cell growth at 10 uM after 48 hrs by SRB assay relative to control; type: functional; settings: CAKI-1, 48 h, read-out: Activity
NCI-H460 = assay: Cytotoxicity against human NCI-H460 cells assessed as cell growth at 10 uM after 48 hrs by SRB assay relative to control; type: functional; settings: NCI-H460, 48 h, read-out: Activity
SNB-75 = assay: Cytotoxicity against human SNB75 cells assessed as cell growth at 10 uM after 48 hrs by SRB assay relative to control; type: functional; settings: SNB-75, 48 h, read-out: Activity
TK-10 = assay: Cytotoxicity against human TK10 cells assessed as cell growth at 10 uM after 48 hrs by SRB assay relative to control; type: functional; settings: TK-10, 48 h, read-out: Activity
MDA-MB-468 = assay: Cytotoxicity against human MDA-MB-468 cells assessed as cell growth at 10 uM after 48 hrs by SRB assay relative to control; type: functional; settings: MDA-MB-468, 48 h, read-out: Activity
SK-MEL-2 = assay: Cytotoxicity against human SK-MEL-2 cells assessed as cell growth at 10 uM after 48 hrs by SRB assay relative to control; type: functional; settings: SK-MEL-2, 48 h, read-out: Activity
NCI-H322M = assay: Cytotoxicity against human NCI-H322M cells assessed as cell growth at 10 uM after 48 hrs by SRB assay relative to control; type: functional; settings: read-out: Activity
COLO 205 = assay: Cytotoxicity against human COLO205 cells assessed as cell growth at 10 uM after 48 hrs by SRB assay relative to control; type: functional; settings: COLO 205, 48 h, read-out: Activity
[5] = Cytotoxicity against human OVCAR3 cells assessed as cell growth at 10 uM after 48 hrs by SRB assay relative to control; type: functional; settings: OVCAR-3, 48 h, read-out: Activity
786-0 = assay: Cytotoxicity against human 786-0 cells assessed as cell growth at 10 uM after 48 hrs by SRB assay relative to control; type: functional; settings: 786-0, 48 h, read-out: Activity
[6] = Cytotoxicity against human NCI-ADR-RES cells assessed as cell growth at 10 uM after 48 hrs by SRB assay relative to control; type: functional; settings: read-out: Activity
HL-60(TB) = assay: Cytotoxicity against human HL-60(TB) cells assessed as cell growth at 10 uM after 48 hrs by SRB assay relative to control; type: functional; settings: HL-60, 48 h, read-out: Activity
SK-MEL-28 = assay: Cytotoxicity against human SK-MEL-28 cells assessed as cell growth at 10 uM after 48 hrs by SRB assay relative to control; type: functional; settings: SK-MEL-28, 48 h, read-out: Activity
A498 = assay: Cytotoxicity against human A498 cells assessed as cell growth at 10 uM after 48 hrs by SRB assay relative to control; type: functional; settings: A498, 48 h, read-out: Activity
SNB-19 = assay: Cytotoxicity against human SNB19 cells assessed as cell growth at 10 uM after 48 hrs by SRB assay relative to control; type: functional; settings: SNB-19, 48 h, read-out: Activity
RXF 393 = assay: Cytotoxicity against human RXF393 cells assessed as cell growth at 10 uM after 48 hrs by SRB assay relative to control; type: functional; settings: RXF 393, 48 h, read-out: Activity
HCC 2998 = assay: Cytotoxicity against human HCC2998 cells assessed as cell growth at 10 uM after 48 hrs by SRB assay relative to control; type: functional; settings: HCC 2998, 48 h, read-out: Activity
SK-MEL-5 = assay: Cytotoxicity against human SK-MEL-5 cells assessed as cell growth at 10 uM after 48 hrs by SRB assay relative to control; type: functional; settings: SK-MEL-5, 48 h, read-out: Activity
K562 = assay: Cytotoxicity against human K562 cells assessed as cell growth at 10 uM after 48 hrs by SRB assay relative to control; type: functional; settings: K562, 48 h, read-out: Activity
[7] = Cytotoxicity against human HCT116 cells assessed as cell growth at 10 uM after 48 hrs by SRB assay relative to control; type: functional; settings: HCT-116, 48 h, read-out: Activity
[8] = Cytotoxicity against human SKOV3 cells assessed as cell growth at 10 uM after 48 hrs by SRB assay relative to control; type: functional; settings: SK-OV-3, 48 h, read-out: Activity
[9] = Cytotoxicity against human HCT15 cells assessed as cell growth at 10 uM after 48 hrs by SRB assay relative to control; type: functional; settings: HCT-15, 48 h, read-out: Activity
[10] = Cytotoxicity against human Hs 578T cells assessed as cell growth at 10 uM after 48 hrs by SRB assay relative to control; type: functional; settings: read-out: Activity

| Structure (SMILES) | growth at 10 µM (T47D) [%] | growth at 10 µM (HOP-62) [%] | growth at 10 µM [1] [%] | growth at 10 µM [2] [%] | growth at 10 µM (MDA-MB-435) [%] | IC50 (MDA-MB-231 [3]) [µM] | growth at 10 µM (LOX IMVI) [%] | growth at 10 µM (MDA-MB-231 [4]) [%] | growth at 10 µM (NCI-H226) [%] | growth at 10 µM (U-251) [%] | growth at 10 µM (SW-620) [%] | growth at 10 µM (SN12C) [%] | growth at 10 µM (CAKI-1) [%] | growth at 10 µM (NCI-H460) [%] | growth at 10 µM (SNB-75) [%] | growth at 10 µM (TK-10) [%] | growth at 10 µM (MDA-MB-468) [%] | growth at 10 µM (SK-MEL-2) [%] | growth at 10 µM (NCI-H322M) [%] | growth at 10 µM (COLO 205) [%] | other results |
| --- | --- | --- | --- | --- | --- | --- | --- | --- | --- | --- | --- | --- | --- | --- | --- | --- | --- | --- | --- | --- | --- |
| CC(C)=CCC[C@H](C)c1ccc(C)c2c1OCN(CCCCCO)C2 | 88.1 | 92.5 | 82.8 | 95.5 | 97.1 | 5.4 | 77.6 | 93.4 | 98.4 | 83.8 | 94.9 | 78.6 | 78.1 | 81.1 | 85.6 | 73.7 | 90 | 92.7 | 102 | 90 | growth at 10 µM [5]: 99.7%; growth at 10 µM (786-0): 69.5%; growth at 10 µM [6]: 76%; growth at 10 µM (HL-60(TB)): 51.7%; growth at 10 µM (SK-MEL-28): 115%; growth at 10 µM (A498): 75.3%; growth at 10 µM (SNB-19): 88.8%; growth at 10 µM (RXF 393): 90.1%; growth at 10 µM (HCC 2998): 73.5%; growth at 10 µM (SK-MEL-5): 91.7%; growth at 10 µM (K562): 31.1%; growth at 10 µM [7]: 68.6%; growth at 10 µM [8]: 88.8%; growth at 10 µM [9]: 94%; growth at 10 µM [10]: 81.2% |
| COc1ccc(CCNCc2c(C)ccc([C@@H](C)CCC=C(C)C)c2O)cc1OC | 69.8 | 89 | 84.9 | 71 | 97.8 | > 50 | 73.7 | 87.7 | 78.3 | 76.7 | 84.9 | 87.1 | 58.4 | 83.1 | 66.1 | 90.1 | 67.9 | 99.9 | 99 | 67.9 | growth at 10 µM [5]: 90.1%; growth at 10 µM (786-0): 80.4%; growth at 10 µM [6]: 83.4%; growth at 10 µM (HL-60(TB)): 85.6%; growth at 10 µM (SK-MEL-28): 104%; growth at 10 µM (A498): 53.4%; growth at 10 µM (SNB-19): 90.8%; growth at 10 µM (RXF 393): 80.8%; growth at 10 µM (HCC 2998): 15.7%; growth at 10 µM (SK-MEL-5): 78%; growth at 10 µM (K562): 44.5%; growth at 10 µM [7]: 58%; growth at 10 µM [8]: 94.8%; growth at 10 µM [9]: 92.2%; growth at 10 µM [10]: 89.6% |
| CC(C)=CCC[C@H](C)c1ccc(C)c(CNCCCCCO)c1O | 99.1 | 88.4 | 94.2 | 72.9 | 95 | 10.7 | 83.1 | 96.5 | 99.6 | 82.9 | 91.9 | 98 | 75.2 | 94.5 | 77.2 | 92.2 | 79.8 | 97.6 | 104 | 105 | growth at 10 µM [5]: 84.2%; growth at 10 µM (786-0): 87.3%; growth at 10 µM [6]: 86.8%; growth at 10 µM (HL-60(TB)): 87.7%; growth at 10 µM (SK-MEL-28): 112%; growth at 10 µM (A498): 82.6%; growth at 10 µM (SNB-19): 94.6%; growth at 10 µM (RXF 393): 84.6%; growth at 10 µM (HCC 2998): 73%; growth at 10 µM (SK-MEL-5): 84.9%; growth at 10 µM (K562): 60.2%; growth at 10 µM [7]: 78%; growth at 10 µM [8]: 99.4%; growth at 10 µM [9]: 86.1%; growth at 10 µM [10]: 88.4% |
| CC(C)=CCC[C@H](C)c1ccc(C)c2c1OCN(CCO)C2 | 70 | 80.4 | 96.1 | 79 | 101 | 20.3 | 100 | 88.8 | 91.2 | 85.1 | 100 | 79.6 | 91.6 | 96 | 58.7 | 88.4 | 82.5 | 99.2 | 104 | 119 | growth at 10 µM [5]: 86.1%; growth at 10 µM (786-0): 61%; growth at 10 µM [6]: 73.5%; growth at 10 µM (HL-60(TB)): 90.8%; growth at 10 µM (SK-MEL-28): 111%; growth at 10 µM (A498): 47.2%; growth at 10 µM (SNB-19): 57.9%; growth at 10 µM (RXF 393): 52.4%; growth at 10 µM (HCC 2998): 84.4%; growth at 10 µM (SK-MEL-5): 81.2%; growth at 10 µM (K562): 77.7%; growth at 10 µM [7]: 71.8%; growth at 10 µM [8]: 105%; growth at 10 µM [9]: 105%; growth at 10 µM [10]: 75.6% |
| CC(C)=CCC[C@H](C)c1ccc(C)c(CNCCO)c1O | 90.2 | 81 | 92.7 | 108 | 95.8 | 14.4 | 88.7 | 86.1 | 90 | 87.2 | 100 | 91.5 | 74.6 | 102 | 77.7 | 81 | 81.7 | 93 | 100 | 105 | growth at 10 µM [5]: 95.7%; growth at 10 µM (786-0): 83.7%; growth at 10 µM [6]: 88.7%; growth at 10 µM (HL-60(TB)): 92.7%; growth at 10 µM (SK-MEL-28): 112%; growth at 10 µM (A498): 66.5%; growth at 10 µM (SNB-19): 88.1%; growth at 10 µM (RXF 393): 79.2%; growth at 10 µM (HCC 2998): 76.9%; growth at 10 µM (SK-MEL-5): 92.5%; growth at 10 µM (K562): 76.8%; growth at 10 µM [7]: 93.4%; growth at 10 µM [8]: 88.9%; growth at 10 µM [9]: 98.6%; growth at 10 µM [10]: 83.1% |
